Experimental data from patent US20170189445A1, “XENON ASSOCIATED WITH AN NMDA RECEPTOR ANTAGONIST FOR CONTROLLING TUMOR PROLIFERATION IN THE CENTRAL NERVOUS SYSTEM” (L'Air Liquide, Société Anonyme pour I'Etude et …, priority 2014, published 2017).

Key:
[1] = test system: glial cells of astrocyte type and/or precursors thereof; test: Cell proliferation by tritiated thymidine accumulation in astrocyte-enriched cultures (FCS mitogens); type: cell-based, rat; design: key to Reduction in proliferation: an absence of response is represented by a “−” sign, synonymous with non-efficacy with respect to cell proliferation; +: a favorable response, synonymous with inhibition of the proliferation of glial cells of astrocyte type; ++: a favorable response, synonymous with inhibition of the proliferation of glial cells of astrocyte type; +++: a favorable response, synonymous with inhibition of the proliferation of glial cells of astrocyte type; ++++=absence of proliferation
Protocol: Cultures are prepared from total brain of embryos, taken from gestating Wistar female rats on day 15.5 of gestation. The method for producing the cultures enriched with astrocytes (cells immunopositive for glial fibrillary acidic protein or GFAP) comprises obtaining a homogeneous cell suspension of the entire embryonic anterior brain by mechanical dissociation, i.e. non-enzymatic dissociation, using Leibovitz L15 medium (Sigma Aldrich). […] The medium used is Minimum Essential Medium (MEM), containing 10% of fetal calf serum (FCS, Biowest) and 10% of horse serum (HS, Sigma Aldrich), 1 g/l of glucose, 2 mM of L-glutamine, 1 mM of sodium pyruvate, non-essential amino acids, and a penicillin/streptomycin cocktail. When confluence is reached (i.e. after 7-10 days of culture), the adherent cells (>90% of astrocytes) are placed in PBS, then detached by tapping the flasks. […] The astrocytes are then cultured in 48-well multiwell plates (Nunc). Approximately 30 000 cells are applied per culture well. The cells are placed in the presence of the same medium as previously, but with a serum supplementation, reduced to 2%. No change of culture medium is carried out throughout the culture period. The proliferation is triggered and maintained by the presence of FCS in the culture medium. The NMDA receptor blocker, memantine (RD Systems), is added to the cultures just before exposure to the xenon. Dibutyryl cyclic AMP (dbcAMP), a lipophilic form of cAMP used as a reference anti-proliferative molecule (Mourlevat et al., Mol Pharmacol, 2003), is added at the same time as the memantine. Once the pharmacological treatments have been carried out, the multiwell dish plates containing the cells in culture and the plate used to humidify the internal compartment of the chamber are placed on a metal base which receives the Plexiglas incubation chamber. The two parts (base and Plexiglas chamber) are butt-joined together by screwing. A gas mixture of interest comprising (% by volume): 20% of O2, 5% of CO2 and 75% of the gas tested is then injected into the incubation chamber, with open inlet and outlet valves, while at the same time controlling the output flow rate by means of a flow meter. The gases tested are nitrogen and xenon. The reference output flow rate, set for air at 10 liters/min, is corrected according to the density of the mixture used. When the CO2 measurement reaches 5% at the outlet, the injection of the gas mixture is stopped and the chamber is made totally airtight by closing the inlet and outlet valves. The exposure chamber is then placed in an enclosure at 37° C. throughout the experimental protocol. After the […] been broken by opening the inlet and outlet valves and unscrewing the chamber from its base, the cultures are placed in the presence of PBS containing 5 mM of glucose and incubated for 2 h with tritiated thymidine (Perkin, 70-90 Ci/mmol; 0.5 μCi/well) in order to analyze the cell proliferation according to a method previously described by Rousseau and colleagues (Mol Pharmacol, 2013). […] These cultures were maintained, as soon as they were placed in culture and up to D3 in vitro, in an atmosphere containing 75% of nitrogen (N2 75) or 75% of xenon (Xe 75), in the presence or absence of memantine (MEM), […] analog of cAMP, dibutyryl-cAMP, used as reference anti-proliferative molecule. At the end of the treatments, the cultures are recovered for a cell proliferation measurement, using tritiated thymidine incorporation as evaluation index. The results are expressed in % (±SEM, n=6) of the mean values of the cultures maintained under 75% of nitrogen (control condition).

[2] = test system: glial cells of astrocyte type and/or precursors thereof in the presence of neuronal cells; test: Cell proliferation by tritiated thymidine incorporation in neuron-glia mixed (mesencephalon) cultures; type: cell-based, rat; design: key to Inhibition of proliferation: an absence of response is represented by a “−” sign, synonymous with non-efficacy with respect to cell proliferation; +: a favorable response, synonymous with inhibition of the proliferation of glial cells of astrocyte type; ++: a favorable response, synonymous with inhibition of the proliferation of glial cells of astrocyte type; +++: a favorable response, synonymous with inhibition of the proliferation of glial cells of astrocyte type; ++++=absence of proliferation
Protocol: Cultures are prepared from mesencephalon of rat embryos taken from female Wistar rats, on day 15.5 of gestation. The use of the mesencephalon cultures comprises obtaining a homogeneous cell suspension by mechanical dissociation, i.e. non-enzymatic dissociation, of the embryonic tissue, using Leibovitz L15 medium (Sigma Aldrich). Aliquots of this suspension are added to Nunc 48-well multiwell plates, which have been precoated with a thin layer of polyethyleneimine (1 mg/ml, borate buffer, pH 8.3) so as to enable adhesion of the neuronal cells (cf. Toulorge et al., Faseb J, 2011). The seeding density is between approximately 80 000 and 100 000 cells/culture well. The mesencephalon cultures are maintained in MEM culture medium, containing 1 g/l of glucose, 2 mM of L-glutamine, 1 mM of sodium pyruvate, non-essential amino acids and a penicillin/streptomycin cocktail. During the first week of culture, this medium also contains 10% of fetal calf serum (FCS, Biowest) and 10% of horse serum (HS, Sigma Aldrich), but from the second week, the concentrations of the two sera are reduced (Gao et al., J Neurosci, 2002). Up to the time when the effects of the gases of interest are evaluated, the cultures are placed in a conventional enclosure thermostatically controlled at 37° C., in which the CO2 is maintained at 5% by volume and wherein the atmosphere is saturated with water. The glial proliferation process occurs as soon as the cells are placed in culture. It is analyzed during the second week in vitro when the serum supplementation is reduced to 2% or in some cases to 0.1%. After reduction of the FCS and HS concentrations on D7, the NMDA receptor blocker, memantine, is added to the cultures before placing them under a controlled gaseous atmosphere. Once the pharmacological treatments have been carried out, the multiwell plates containing the cells in culture and the plate used for humidifying the internal compartment of the chamber are placed on a metal base which receives the Plexiglas incubation chamber. The two parts (base and Plexiglas chamber) are butt-joined together by screwing. A gas mixture of interest comprising (% by volume): 20% of O2, 5% of CO2 and 75% of gas tested is then injected into the incubation chamber, with open inlet and outlet valves, while at the same time controlling the output flow rate by means of a flow meter. The gases tested are nitrogen and xenon. The reference output flow rate, set for air at 10 liters/min, is corrected according to the density of the mixture used. When the CO2 measurement reaches 5% at the outlet, the injection of the gas mixture is stopped and the chamber is made totally airtight by closing the inlet and outlet valves. The exposure chamber is then placed in an enclosure at 37° C. for the 7 days of the experimental protocol. On D14, after the […] been broken by opening the inlet and outlet valves and unscrewing the incubation chamber from its base, the cultures are subjected to the tritiated-thymidine proliferation test according to the protocol described in example 1, using as a basis the technique described by Rousseau and colleagues (Mol. Pharmacol., 2013). […] Some experiments were also carried out by reducing the concentrations of the 2 types of serum to 0.1%, while maintaining the cells under a nitrogen-enriched or xenon-enriched atmosphere. The cultures are then recovered for a cell proliferation measurement using tritiated thymidine. […]

How did the anti-proliferative effect ([1]; 30 pM (so in the source), nitrogen-enriched atmosphere) turn out when `CC12CC3CC(C)(C1)CC(N)(C3)C2` [Memantine, memantine] was run?
The anti-proliferative effect was −39.3%.

What about the anti-proliferative effect ([1]; 30 pM (so in the source), xenon-enriched atmosphere) of the same compound?
Its anti-proliferative effect is −75.2%.

And the Reduction in proliferation ([1]; 1 μM, 75% N2, D0-D3)?
Its Reduction in proliferation is “−”.

And the Reduction in proliferation ([1]; 1 μM, 75% Xe, D0-D3)?
The Reduction in proliferation was “−”.

And the Reduction in proliferation ([1]; 3 μM, 75% N2, D0-D3)?
The Reduction in proliferation was “−”.

What about the Reduction in proliferation ([1]; 3 μM, 75% Xe, D0-D3) of the same compound?
The Reduction in proliferation was “−”.

And the Reduction in proliferation ([1]; 10 μM, 75% N2, D0-D3)?
The Reduction in proliferation was “−”.

What about the Reduction in proliferation ([1]; 10 μM, 75% Xe, D0-D3) of the same compound?
The Reduction in proliferation was “++”.

And the anti-proliferative effect ([1]; 10 μM, xenon-enriched atmosphere, vs cultures under 75% nitrogen)?
Its anti-proliferative effect is −42.5%.

What about the Reduction in proliferation ([1]; 30 μM, 75% N2, D0-D3) of the same compound?
Its Reduction in proliferation is “++”.

And the Reduction in proliferation ([1]; 30 μM, 75% Xe, D0-D3)?
Its Reduction in proliferation is “+++”.

What about the “anti-proliferative effect” value ([1]; nitrogen-enriched atmosphere, up to 10 μM) of the same compound?
Its value is “no anti-proliferative effect”.

And the Inhibition of proliferation ([2]; 10 μM, 75% N2, sera at 2%, D7-D14)?
The Inhibition of proliferation was “−”.

What about the “impact on the proliferation” value ([2]; memantine applied under nitrogen) of the same compound?
The value was “no impact on the proliferation”.

Which results are given for `[Xe]` [Xe, xenon]?
Reduction in proliferation ([1]; 75% Xe (20% O2 + 5% CO2), no drug, D0-D3 (3 days)): −; anti-proliferative effect ([1]; xenon replaces nitrogen (75 vol %), no drug): no significant anti-proliferative effect; Inhibition of proliferation ([2]; 75% Xe, sera at 0.1%, D7-D14): +++; Inhibition of proliferation ([2]; 75% Xe, sera at 2%, D7-D14 (7 days)): −; impact on the proliferation ([2]; xenon-enriched atmosphere, no memantine): no impact on the proliferation

Which results are given for `CCCC(=O)Nc1ncnc2c1ncn2[C@@H]1O[C@@H]2COP(=O)(O)O[C@H]2[C@H]1OC(=O)CCC` [dbcAMP, Dibutyryl cyclic AMP]?
Reduction in proliferation ([1]; 1 mM, 75% N2, D0-D3): ++; Reduction in proliferation ([1]; 1 mM, 75% Xe, D0-D3): ++; proliferation in the presence of serum mitogens ([1]; atmosphere containing 75 vol % of nitrogen): significantly reduced
